Measured values as given in patent US20250295748A1 (priority 2020, published 2025).
*1 amine or outer side, *2 acyl side, *3 side chain or, on linkers, in order; H or OH if unused. Where a SMILES comes first, the peptide text is derived from it. Bridges are numbered along the chain shown (N, C = ends). [ ]: non-standard residue; d: D form. X1 = CC(C)CCCCCCCCC[C@H](CC(=O)[*:1])O[*:2]

Target: Bovine Serum Albumin (BSA) (Bos taurus, UniProt P02769)
Assay: Thermal shift assay (SYPRO-Orange) of BSA
Format: biochemical
Details: FIG. 8, BSA 0.1 mg/ml, 1×PBS

Sequence of Bovine Serum Albumin (BSA) (P02769 25-607): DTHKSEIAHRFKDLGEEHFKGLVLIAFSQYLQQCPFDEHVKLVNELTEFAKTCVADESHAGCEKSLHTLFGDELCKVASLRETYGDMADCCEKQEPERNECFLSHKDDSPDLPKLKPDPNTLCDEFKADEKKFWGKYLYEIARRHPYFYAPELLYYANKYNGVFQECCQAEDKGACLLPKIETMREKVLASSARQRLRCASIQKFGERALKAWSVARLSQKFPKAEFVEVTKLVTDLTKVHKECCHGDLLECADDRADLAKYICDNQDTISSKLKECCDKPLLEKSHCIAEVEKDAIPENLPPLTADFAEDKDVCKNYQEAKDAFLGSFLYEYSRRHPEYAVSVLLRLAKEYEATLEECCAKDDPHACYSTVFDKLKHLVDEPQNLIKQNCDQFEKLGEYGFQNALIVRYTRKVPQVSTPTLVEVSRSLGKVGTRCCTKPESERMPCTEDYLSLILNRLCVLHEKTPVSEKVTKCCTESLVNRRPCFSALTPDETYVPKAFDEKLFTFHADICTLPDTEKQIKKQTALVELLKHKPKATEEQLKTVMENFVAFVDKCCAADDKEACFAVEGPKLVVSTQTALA

CC(C)CCCCCCCCC[C@@H]1CC(=O)N[C@@H](CCC(=O)O)C(=O)N[C@@H](CC(C)C)C(=O)N[C@H](CC(C)C)C(=O)N[C@@H](C(C)C)C(=O)N[C@@H](CC(=O)O)C(=O)N[C@H](CC(C)C)C(=O)N[C@@H](CC(C)C)C(=O)O1 [Surfactin] (EL[dL]VD[dL]L; linker N-C via X1)
denaturing activity against BSA (decrease in Tm vs concentration): potent at denaturing BSA but less than 277-SEC
